Data taken from patent US10364256B2 (GlaxoSmithKline Intellectual Property Development Limited, priority 2015, dated 2019).
Where a name gives a salt, the structure may show the parent alone. Read-outs that look alike come from different tables or passages of the source.

How the values were obtained:
[1] = system: NQO1 specific enzyme activity in BEAS-2B cells (marker for NRF2 activation); assay: BEAS-2B NQO1 MTT Assay; assay type: cell-based; conditions: Homo sapiens, compound incubated 48 hours, read-out: EC50 (NQO1 specific enzyme activity induction)
Method in brief: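 BEAS-2B cells treated with compound for 48 h at 37 °C, then lysed; NQO1 activity in lysates measured kinetically by MTT reduction at A570 over 30 min. pEC50 from 3-parameter fit of ΔOD/min versus log concentration; lysate also taken for Cell Titer Glo.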

[2] = target: T1, Keap1 Kelch domain (321-609) / TAMRA-labeled 16mer NRF2 peptide (ETGE motif) (Homo sapiens, UniProt Q14145); assay: NRF2-Keap1 FP Assay (Keap1 Kelch fluorescence polarization); assay type: binding; conditions: 20 nM Keap1 (321-609), 8 nM Tamra labeled peptide
T1 construct: the Kelch domain (321-609) of Keap1 is used
T1 sequence (Q14145 321-609): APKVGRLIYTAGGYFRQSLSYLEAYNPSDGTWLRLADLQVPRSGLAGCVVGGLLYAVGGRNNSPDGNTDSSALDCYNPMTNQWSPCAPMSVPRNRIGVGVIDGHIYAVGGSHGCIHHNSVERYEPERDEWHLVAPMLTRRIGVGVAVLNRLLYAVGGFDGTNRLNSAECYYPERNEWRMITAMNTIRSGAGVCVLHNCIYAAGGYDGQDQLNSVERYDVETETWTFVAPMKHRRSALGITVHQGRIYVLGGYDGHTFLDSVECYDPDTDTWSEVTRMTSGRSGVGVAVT
Method in brief: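 Compound dilutions (3-fold) were incubated 1 hr at room temperature with 20 nM Keap1 Kelch (321-609) and 8 nM TAMRA-labeled ETGE 16mer peptide. Buffer was 50 mM Tris pH 8.0, 100 mM NaCl, 5 mM MgCl2, 1 mM DTT, 2 mM CHAPS, 0.005% BSA. Fluorescence polarization (mP) was normalized to controls and fitted with a four-parameter equation to give pIC50.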

[3] = target: T2, full length Keap1 protein / full length NRF2 protein (Homo sapiens, UniProt Q14145); assay: NRF2-Keap1 TR-FRET Low Protein Assay; assay type: binding; conditions: 1.25 nM Keap1 FlagHis and 2.5 nM biotin-NRF2 added
T2 construct: full length NRF2 protein and full length Keap1 protein (Keap1 exists a dimer) are used; His
T2 sequence (Q14145 whole entry): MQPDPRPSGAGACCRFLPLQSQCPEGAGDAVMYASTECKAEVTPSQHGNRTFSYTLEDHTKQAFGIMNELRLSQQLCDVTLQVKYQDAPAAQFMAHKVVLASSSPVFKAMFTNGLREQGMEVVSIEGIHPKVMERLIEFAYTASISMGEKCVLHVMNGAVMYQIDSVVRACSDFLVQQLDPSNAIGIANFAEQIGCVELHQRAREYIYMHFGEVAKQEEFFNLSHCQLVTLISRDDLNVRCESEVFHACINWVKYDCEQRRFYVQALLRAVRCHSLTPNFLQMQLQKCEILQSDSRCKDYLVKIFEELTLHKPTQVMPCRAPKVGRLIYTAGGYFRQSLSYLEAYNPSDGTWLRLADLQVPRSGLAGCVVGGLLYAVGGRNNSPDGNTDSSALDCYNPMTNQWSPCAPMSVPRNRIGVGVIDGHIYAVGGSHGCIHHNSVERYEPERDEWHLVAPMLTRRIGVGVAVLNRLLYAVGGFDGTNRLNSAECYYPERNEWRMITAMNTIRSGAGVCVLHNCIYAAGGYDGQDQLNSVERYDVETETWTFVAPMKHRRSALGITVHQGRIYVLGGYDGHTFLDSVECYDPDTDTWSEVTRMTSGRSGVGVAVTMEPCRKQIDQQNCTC
Method in brief: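 Flag-tagged full-length Keap1 was preincubated with compound (3-fold series) for 2.25 h at 37 °C in Tris pH 8.0/MgCl2/NaCl/BSA/DTT/CHAPS. Biotin-Avi-NRF2 (added at 2.5 nM) was then bound for 1.25 h at 4 °C. Eu-streptavidin/anti-Flag-APC TR-FRET (665/615 nm) was read after 1 h at RT, and pIC50 came from a four-parameter fit.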

Row | SMILES | EC50 [1] [nM] | IC50 [2] [nM] | IC50 [3] [nM] | EC50 ([1]; BEAS-2B, 48 h) [nM]
1 | CCn1cc([C@H]2C[C@@H]2c2c(C(=O)O)cnn2-c2cc(OC)cc(-c3cccc(OC(C)C4CCCCC4)c3)c2)nn1 (stereo partly drawn) [Example 193, 1-(3′-(1-cyclohexylethoxy)-5-methoxy-[1,1′-biphenyl]-3-yl)-5-((1S,2S)-2-(1-ethyl-1H-1,2,3-triazol-4-yl)cyclopropyl)-1H-pyrazole-4-carboxylic acid] | 100 to 1000 | 100 to 1000 | 100 to 1000 | 
2 | C[C@H](Oc1cccc(-c2cccc(-n3ncc(C(=O)O)c3[C@@H]3C[C@H]3c3cn(C)nn3)c2)c1)C1CCCCC1 [Example 68, 1-(3′-((S)-1-Cyclohexylethoxy)-[1,1′-biphenyl]-3-yl)-5-((1R,2R)-2-(1-methyl-1H-1,2,3-triazol-4-yl)cyclopropyl)-1H-pyrazole-4-carboxylate, Sodium salt] |  | 10 to 100 | < 10 | 1 to 10
3 | Cc1c(OCC2CCCCC2)cccc1-c1cccc(-n2ncc(C(=O)O)c2[C@H]2C[C@@H]2c2cn(C)nn2)c1 (racemic) [Example 72, 1-(3′-(Cyclohexylmethoxy)-2′-methyl-[1,1′-biphenyl]-3-yl)-5-(trans-2-(1-methyl-1H-1,2,3-triazol-4-yl)cyclopropyl)-1H-pyrazole-4-carboxylic Acid] | 10 to 100 | 100 to 1000 | 100 to 1000 | 
4 | C[C@H](Oc1cccc(-c2cccc(-n3ncc(C(=O)O)c3[C@H]3C[C@H]3c3cn(C)nn3)c2)c1)C1CCCCC1 (racemic) [Example 101, 1-(3′-((S)-1-cyclohexylethoxy)-[1,1′-biphenyl]-3-yl)-5-(cis-2-(1-methyl-1H-1,2,3-triazol-4-yl)cyclopropyl)-1H-pyrazole-4-carboxylic Acid] |  | > 10000 | 1000 to 10000 | 100 to 1000
5 | Cn1cc(C2CC2c2c(C(=O)O)cnn2-c2cccc(-c3cccc(OCCC4CCCCC4)c3)c2)nn1 (stereo not drawn) [Example 170, 1-(3′-(2-Cyclohexylethoxy)-[1,1′-biphenyl]-3-yl)-5-(2-(1-methyl-1H-1,2,3-triazol-4-yl)cyclopropyl)-1H-pyrazole-4-carboxylic acid] | 100 to 1000 | 10 to 100 | 10 to 100 | 
6 | C[C@H]1Cc2ccccc2S(=O)(=O)N(Cc2cccc(-c3cccc(-n4ncc(C(=O)O)c4[C@H]4C[C@@H]4c4cn(C)nn4)c3)c2)C1 [Example 133, 1-(3′-(((S)-4-methyl-1,1-dioxido-4,5-dihydrobenzo[f][1,2]thiazepin-2(3H)-yl)methyl)-[1,1′ biphenyl]-3-yl)-5-((1S,2S)-2-(1-methyl-1H-1,2,3-triazol-4-yl)cyclopropyl)-1H-pyrazole-4-carboxylic acid] | 1000 to 10000 | 100 to 1000 | 10 to 100 | 
7 | Cn1cc([C@@H]2C[C@H]2c2c(C(=O)O)cnn2-c2cccc(-c3cccc(S(=O)(=O)N4Cc5ccccc5OC(C)(C)C4)c3)c2)nn1 (racemic) [Example 141, 1-(3′-((2,2-Dimethyl-2,3-dihydrobenzo[f][1,4]oxazepin-4(5H)-yl)sulfonyl)-[1,1′-biphenyl]-3-yl)-5-((1,2-trans)-2-(1-methyl-1H-1,2,3-triazol-4-yl)cyclopropyl)-1H-pyrazole-4-carboxylic Acid] | 100 to 1000 | 10 to 100 | 10 to 100 | 
8 | C[C@H](Oc1cccc(-c2cccc(-n3ncc(C(=O)OCCN4CCOCC4)c3[C@@H]3C[C@H]3c3cn(C)nn3)c2)c1)C1CCCCC1 [Example 108, 2-Morpholinoethyl 1-(3′-((S)-1-cyclohexylethoxy)-[1,1′-biphenyl]-3-yl)-5-((1R,2R)-2-(1-methyl-1H-1,2,3-triazol-4-yl)cyclopropyl)-1H-pyrazole-4-carboxylate] | 10 to 100 | > 10000 | 1000 to 10000 | 
9 | Cn1cc([C@@H]2C[C@H]2c2c(C(=O)O)cnn2-c2cccc(-c3cccc(CN4Cc5ccccc5CC(C)(C)C4)c3)c2)nn1 (racemic) [Example 126, 1-(3′-((4,4-dimethyl-4,5-dihydro-1H-benzo[c]azepin-2(3H)-yl)methyl)-[1,1′-biphenyl]-3-yl)-5-((1,2-trans)-2-(1-methyl-1H-1,2,3-triazol-4-yl)cyclopropyl)-1H-pyrazole-4-carboxylic Acid] | 100 to 1000 | 100 to 1000 | 100 to 1000 | 
10 | C[C@H]1Cc2ccccc2S(=O)(=O)N(Cc2cccc(-c3cccc(-n4ncc(C(=O)O)c4[C@@H]4C[C@H]4c4cn(C)nn4)c3)c2)C1 [Example 132, 1-(3′-(((S)-4-methyl-1,1-dioxido-4,5-dihydrobenzo[f][1,2]thiazepin-2(3H)-yl)methyl)-[1,1′-biphenyl]-3-yl)-5-((1R,2R)-2-(1-methyl-1H-1,2,3-triazol-4-yl)cyclopropyl)-1H-pyrazole-4-carboxylic acid] | 100 to 1000 | 10 to 100 | < 10 | 
11 | CCCC1CCCCN1S(=O)(=O)c1cccc(-c2cccc(-n3ncc(C(=O)O)c3[C@@H]3C[C@H]3c3cn(C)nn3)c2)c1 (mixture of isomers) [Example 142, 5-((1,2-trans)-2-(1-Methyl-1H-1,2,3-triazol-4-yl)cyclopropyl)-1-(3′-((2-propylpiperidin-1-yl)sulfonyl)-[1,1′-biphenyl]-3-yl)-1H-pyrazole-4-carboxylic Acid] | 100 to 1000 | 10 to 100 | 10 to 100 | 
12 | C[C@H](Oc1cccc(-c2cccc(-n3ncc(C(=O)O)c3[C@@H]3C[C@H]3c3cn(C)nn3)c2)c1)C1CCCCC1 [Example 70, Calcium 1-(3′-((S)-1-Cyclohexylethoxy)-[1,1′-biphenyl]-3-yl)-5-((1R,2R)-2-(1-methyl-1H-1,2,3-triazol-4-yl)cyclopropyl)-1H-pyrazole-4-carboxylate Hydroxide] | < 1 | 10 to 100 | < 10 | 
13 | C[C@H](Oc1cccc(-c2cccc(-n3ncc(C(=O)O)c3[C@@H]3C[C@H]3c3cn(C)nn3)c2)c1)C1CCCCC1 [Example 64, 1-(3′-((S)-1-Cyclohexylethoxy)-[1,1′-biphenyl]-3-yl)-5-((1R,2R)-2-(1-methyl-1H-1,2,3-triazol-4-yl)cyclopropyl)-1H-pyrazole-4-carboxylic Acid] |  | 10 to 100 | < 10 | 10 to 100
14 | C[C@H](Oc1cccc(-c2cccc(-n3ncc(C(=O)O)c3[C@H]3C[C@@H]3c3c[nH]nn3)c2)c1)C1CCCCC1 [Example 100, 5-((1S,2S)-2-(1H-1,2,3-Triazol-4-yl)cyclopropyl)-1-(3′-((S)-1-cyclohexylethoxy)-[1,1′-biphenyl]-3-yl)-1H-pyrazole-4-carboxylic Acid] | 100 to 1000 | 1000 to 10000 | 100 to 1000 | 
15 | C[C@H](Oc1cccc(-c2cccc(-n3ncc(C(=O)O)c3[C@@H]3C[C@H]3c3cn(C4CCC4)nn3)c2)c1)C1CCCCC1 (racemic) [Example 78, 5-(trans-2-(1-Cyclobutyl-1H-1,2,3-triazol-4-yl)cyclopropyl)-1-(3′-((S)-1-cyclohexylethoxy)-[1,1′-biphenyl]-3-yl)-1H-pyrazole-4-carboxylic acid] | 1 to 10 | 10 to 100 | 10 to 100 | 
16 | C[C@@H](Oc1cccc(-c2cccc(-n3ncc(C(=O)O)c3[C@@H]3C[C@H]3c3cn(C)nn3)c2)c1)C1CCCCCC1 [Example 74, 1-(3′-((R)-1-Cycloheptylethoxy)-[1,1′-biphenyl]-3-yl)-5-((1R,2R)-2-(1-methyl-1H-1,2,3-triazol-4-yl)cyclopropyl)-1H-pyrazole-4-carboxylic Acid] | 10 to 100 | 10 to 100 | 10 to 100 | 
